# From US20240059669A1, “COCRYSTAL OF A CDK INHIBITOR” (AURIGENE ONCOLOGY LIMITED, priority 2020, published 2024)
# Structures can show the parent of a compound that is named as a salt.
# Experiments:
# Assay type in all cases: physicochemical
# [1] = Equilibrium solubility in various media (shaker water bath, HPLC analysis); conditions: for Solubility (mg/ml) ± SD: 24 hrs
# Procedure: Equilibrium solubility of compound of formula (I) free base and compound of formula (I) fumarate were measured in various medium. Excess quantities of compound of formula (I) and compound of formula (I) fumarate were added to glass vials containing different medium. These vials were kept for shaking in shaker water bath at appropriate temperature (25° C. for water and 37° C. for buffers) at 200 rpm. The obtained preparations were filtered and analysed by means of HPLC.
# [2] = 6-month storage stability of solid form (XRPD, particle morphology); conditions: 6 months
# [3] = Dynamic vapor sorption (DVS) moisture uptake study; conditions: at 90% RH, 25° C.
# Procedure: The moisture uptake study of compound of present invention was performed with a DVS instrument (Q5000SA, TA instruments, New Castle, Delaware, USA) at 25° C. to evaluate the physical stability of compound of present invention against moisture or tendency to adsorb moisture. The instrument consisted of a microbalance housed inside a temperature-controlled chamber. The humidity was controlled via switching valves, which control the flow of a dry gas (nitrogen) through a humidification stage. Instrument was programmed for moisture sorption from 40 to 90% RH in 10% RH steps at 25±0.1° C. using an equilibrium condition. The equilibrium condition was set to <0.01% total mass change within 10 min and with a maximum dwell time of 60 min followed by desorption from 90% RH to 10% RH steps. The equilibrium condition for desorption was set to <0.01% total mass change within 10 min and with a maximum dwell time of 60 min.
# [4] = Variable humidity X-ray diffraction (VH-XRD) physical stability; conditions: 40% RH to 85% RH sorption then desorption to 40% RH, 1 hr at each RH level
# Procedure: An Anton Paar TTK 450 stage was used to collect in situ XRPD patterns as a function of temperature. The sample was heated with a resistance heater located directly under the sample holder, and the temperature was monitored with a platinum-100 resistance sensor located in the specimen holder. The heater was powered and controlled by an Anton Paar TCU 100 interfaced with Data Collector. Approximately 200 mg sample used for VH-XRD analysis.
# The compound of present invention was exposed to various humidity conditions. The sample, i.e., compound of formula (I) fumarate, was exposed from 40% RH to 85% RH followed by desorption cycle from 85% to 40% RH. The samples were equilibrated for 1 hr at each RH level (both sorption and desorption). […] See, FIG. 6B.
# [5] = Variable temperature X-ray diffraction (VT-XRD) physical stability; conditions: 25° C., 40° C. and 60° C.; isothermal hold of 60 min
# Excerpt: An Anton Paar temperature-humidity chamber (THC) was used to collect in situ XRPD patterns as a function of humidity. The humidity was generated with an RH-200 manufactured by VTI Inc. and carried by a flow of nitrogen gas. The humidity and temperature was monitored by a HygroClip sensor manufactured by Rotronic located next to the specimen inside the THC. XRPD patterns were collected with a PANalytical X'Pert PRO MPD diffractometer in symmetric Bragg-Brentano reflection geometry. Isothermal hold of 60 min given at specified temperature. Heating rate was kept at 10° C./min. Approximately 200 mg sample used for VT-XRD analysis. Cu Kα radiation was produced using a long, fine-focus source operated at 45 kV and 40 mA. The incident beam was conditioned using a nickel filter, a 0.02-rad Soller slit, a 11.6-mm fixed incident beam mask, a fixed 0.76-mm ½° antiscatter slit, and a fixed 0.38-mm ¼° divergence slit. The diffracted beam was conditioned using a 5-mm antiscatter slit, a 0.04-rad Soller slit. The diffraction patterns were collected using a scanning position-sensitive detector (X'Celerator) located 240 mm from the sample. Data were collected and analyzed using Data Collector software v. 5.5.
# VT-XRD analysis confirmed that compound of formula (I)-fumaric acid cocrystal remained stable and no solid form transformation/phase change occurred even at higher temperature conditions. […]
# [6] = pH 4.5 Acetate buffer USP, 37° C.
# [7] = pH 5.8 Phosphate buffer USP, 37° C.
# [8] = pH 6.8 Phosphate buffer USP, 37° C.
"Solubility (mg/ml) ± SD ([1]; Purified water, 25° C.) [mg/mL]","solubility at 24 h ([1]; pH 2.8 acid phthalate buffer USP, 37 °C, pH 2.8, aqueous buffer, thermodynamic from solid, pH 2.8 Acid Phthalate buffer USP, 37° C., read-out: Solubility (mg/ml) ± SD) [mg/mL]","Solubility (mg/ml) ± SD [1, 6] [mg/mL]","Solubility (mg/ml) ± SD [1, 7] [mg/mL]","Solubility (mg/ml) ± SD [1, 8] [mg/mL]",solid form and particle morphology after storage ([2]; 25° C./60% RH),solid form and particle morphology after storage ([2]; 40° C./75% RH),weight/moisture gained (DVS) [3],"Solubility (mg/ml) ± SD ([1]; pH 2.8 Acid Phthalate buffer USP, 37° C.) [mg/mL]",physical stability at different relative humidity conditions (VH-XRD) [4],physical stability at different temperature conditions (VT-XRD) [5],SMILES
0.0013 ± 0.0001,0.065 ± 0.004,0.07 ± 0.004,0.002 ± 0.0001,0.0005 ± 0.0002,–,–,–,–,–,–,"CC(C)[C@H](C(=O)Nc1cc(C2CC2)[nH]n1)c1cccc(-c2ccc(NC(=O)/C=C/CN3CCOCC3)nc2)c1 [Formula (I) free base, (S, E)-N-(5-(3-(1-((5-cyclopropyl-1H-pyrazol-3-yl)amino)-3-methyl-1-oxobutan-2-yl)phenyl)pyridin-2-yl)-4-morpholinobut-2-enamide]"
0.280 ± 0.004,–,0.171 ± 0.001,0.014 ± 0.004,0.014 ± 0.009,remained unchanged,remained unchanged,About 0.646 % w/w,0.114 ± 0.017,remained physically stable,physically stable,CC(C)[C@H](C(=O)Nc1cc(C2CC2)[nH]n1)c1cccc(-c2ccc(NC(=O)/C=C/CN3CCOCC3)nc2)c1 [Formula (I) fumarate]
